Laboratory results published in US6946458B2, “N-thiolated beta-lactams: novel antibacterial agents for methicillin-resistant Staphylococcus aureus” (University of South Florida, priority 1999, dated 2005).
Converted amounts (≈) assume the structure as drawn. “Also recorded” adds a separate entry of the source. Like-named read-outs stand apart in the source and are kept apart here.

What was measured:
MRSA USF656 = experiment: Kirby-Bauer agar disk diffusion; format: cell-based, Staphylococcus aureus; design: Kirby-Bauer Disc Diffusion Test Results: unit not given here; details: for Kirby-Bauer Disc Diffusion Test Results: Table 5, beta-lactamase producing strain; for zone of growth inhibition, average diameter: Table 1, 6-mm disks, 20 μg test compound, 24 h, triplicate; for zone of inhibition at 20 µg/disc: Staphylococcus aureus, MRSA
Procedure, shortened: (§1)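 Read-out is the mean diameter (mm, n=3) of the zone without bacterial growth 24 h after applying a 6-mm disk carrying 20 μg of compound to an agar plate of β-lactamase-producing MRSA.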

MRSA USF653 = experiment: Kirby-Bauer agar disk diffusion; format: cell-based, Staphylococcus aureus; design: Kirby-Bauer Disc Diffusion Test Results: unit not given here; details: for Kirby-Bauer Disc Diffusion Test Results: Table 5, beta-lactamase producing strain; for zone of growth inhibition, average diameter: Table 1, 6-mm disks, 20 μg test compound, 24 h, triplicate; for zone of inhibition at 20 µg/disc: Staphylococcus aureus, MRSA
Procedure, shortened: as §1

MRSA USF652 = experiment: Kirby-Bauer agar disk diffusion; format: cell-based, Staphylococcus aureus; design: Kirby-Bauer Disc Diffusion Test Results: unit not given here; details: for Kirby-Bauer Disc Diffusion Test Results: Table 5, beta-lactamase producing strain; for zone of growth inhibition, average diameter: Table 1, 6-mm disks, 20 μg test compound, 24 h, triplicate; for zone of inhibition at 20 µg/disc: Staphylococcus aureus, MRSA
Procedure, shortened: as §1

MRSA USF658 = experiment: Kirby-Bauer agar disk diffusion; format: cell-based, Staphylococcus aureus; design: Kirby-Bauer Disc Diffusion Test Results: unit not given here; details: for Kirby-Bauer Disc Diffusion Test Results: Table 5, beta-lactamase producing strain; for zone of growth inhibition, average diameter: Table 1, 6-mm disks, 20 μg test compound, 24 h, triplicate; for zone of inhibition at 20 µg/disc: Staphylococcus aureus, MRSA
Procedure, shortened: as §1

MRSA USF655 = experiment: Kirby-Bauer agar disk diffusion; format: cell-based, Staphylococcus aureus; design: Kirby-Bauer Disc Diffusion Test Results: unit not given here; details: for Kirby-Bauer Disc Diffusion Test Results: Table 5; for zone of growth inhibition, average diameter: Table 1, 6-mm disks, 20 μg test compound, 24 h, triplicate; for zone of inhibition at 20 µg/disc: Staphylococcus aureus, MRSA
Procedure, shortened: as §1

MRSA USF657 = experiment: Kirby-Bauer agar disk diffusion; format: cell-based, Staphylococcus aureus; design: Kirby-Bauer Disc Diffusion Test Results: unit not given here; details: for Kirby-Bauer Disc Diffusion Test Results: Table 5, beta-lactamase producing strain; for zone of growth inhibition, average diameter: Table 1, 6-mm disks, 20 μg test compound, 24 h, triplicate; for zone of inhibition at 20 µg/disc: Staphylococcus aureus, MRSA
Procedure, shortened: as §1

MRSA USF654 = experiment: Kirby-Bauer agar disk diffusion; format: cell-based, Staphylococcus aureus; design: Kirby-Bauer Disc Diffusion Test Results: unit not given here; details: for Kirby-Bauer Disc Diffusion Test Results: Table 5, beta-lactamase producing strain; for zone of growth inhibition, average diameter: Table 1, 6-mm disks, 20 μg test compound, 24 h, triplicate; for zone of inhibition at 20 µg/disc: Staphylococcus aureus, MRSA
Procedure, shortened: as §1

MRSA USF659 = experiment: Kirby-Bauer agar disk diffusion; format: cell-based, Staphylococcus aureus; design: Kirby-Bauer Disc Diffusion Test Results: unit not given here; details: for Kirby-Bauer Disc Diffusion Test Results: Table 5, beta-lactamase producing strain; for zone of growth inhibition, average diameter: Table 1, 6-mm disks, 20 μg test compound, 24 h, triplicate; for zone of inhibition at 20 µg/disc: Staphylococcus aureus, MRSA
Procedure, shortened: as §1

MRSA cells = experiment: light microscopy after Gram staining; format: cell-based, Staphylococcus aureus; details: for cells Gram-stained purple: Example 5, MRSA cells grown in presence of the substance; for coloration upon Gram staining: Example 1
From the text: (§2) In fact, only small isolated colonies of surviving cells can be found, all of which appear perfectly normal in size, shape, smoothness, and clustering behavior. […] Pulse radiolabeling experiments indicate that the lactam of FIG. 1D blocks the bacterial uptake of ^3H-uridine and ^3H-leucine at low (MIC) levels (Lim, D. V. et al. Microbiology, 1977, 33:328; Champney, W. S. and C. G. Tober Antimicrob. Agents and Chemother., 2000, 44:1413).
(FIGS. 14A-14C) S. aureus is a Gram-positive microorganism, and thus reacts with Gram stain to produce a purple coloration due to binding of the stain to the peptidoglycan. 100% of MRSA cells grown either in the absence or presence of the lactam of FIG. 11F take on a purple color when Gram stained (top and center images, next page). In contrast, for MRSA cells treated with penicillin G or vancomycin (cell wall synthesis inhibitors), only about 30% of the cells are Gram-stained purple, with the remainder of the cells appearing pink (bottom image, next page) due to morphologically altered walls. This is strong evidence that the N-methylthio lactams are not affecting late stage events in cell wall biosynthesis.

[1] = system: cultures of S. aureus and MRSA; experiment: electron microscopy of cell morphology; format: cell-based, Staphylococcus aureus; details: for cell morphology: Example 1, electron microscopy, high magnification
From the text: The structure-bioactivity patterns observed for these N-thiolated lactams are highly atypical for a β-lactam antibiotic. The compounds are lipohilic and devoid of the typical acidic ring functionality required for recognition by the penicillin binding proteins. The implication that the lactams set forth in FIGS. 1A-1I are not acting in the same manner or on the same enzymes as the traditional β-lactam drugs is supported by electron microscopy experiments, which confirm that cell morphology is unaffected by the lactam of FIG. 1D (Greenwood, D. et al. Science, 1969, 163:1076).
as §2
Light microscopy and scanning electron microscopy experiments have enabled us to look for cell wall damage in cultures of S. aureus and MRSA grown in the presence of N-methylthio lactam (FIG. 11F) over a range of different concentrations and cell growth conditions. […] Those cells that survive the treatment appear normal (coccal) and fully mature.

Staph aureus 525 = experiment: Kirby-Bauer agar disk diffusion; format: cell-based, Staphylococcus aureus; details: Table 5
[2] = system: bacterial uptake of ^3H-uridine and ^3H-leucine; experiment: pulse radiolabeling experiments; format: cell-based; details: at low (MIC) levels
From the text: as §2

S. simulans (ATCC 11631) = experiment: Kirby-Bauer agar disk diffusion; format: cell-based, Staphylococcus simulans; details: Table 1; 6-mm disks, 20 μg test compound, 24 h, triplicate
Description: (§3) In this study, a selection of N-methylthio-substituted β-lactams are examined for antimicrobial activity by the Kirby-Bauer disk diffusion method on agar plates. A variety of common Gram-positive and Gram-negative bacteria are tested, including clinical isolates of methicillin-resistant Staphylococcus aureus (MRSA).
(§4) Compound susceptibility measurements are obtained from agar disk diffusion experiments using 6-mm air-dried disks impregnated with 20 μg of the test compound. The values correspond to the average diameters in mm (triplicate experiments) for the zone of growth inhibition observed after 24 h. Staphylococcus aureus (ATCC 25923) and β-lactamase-producing strains of methicillin-resistant Staphylococcus aureus (labeled as MRSA USF652-659) are obtained from Lakeland Regional Medical Center, Lakeland, Fla. Staphylococcus epidermidis, Staphylococcus simulans, Staphylococcus simulans, and Microcossus luteus are clinical isolates from University of South Florida Medical Clinic. Nieserria gonnorhoeae (β-lactamase positive) is obtained from the Tampa Branch State Laboratory. PenG is penicillin G (potassium salt). Table 1 provides the zones of growth inhibition that are observed after 24 hours using the lactams of FIGS. 1A-1I (designated A-I, respectively).
(§5) Of particular interest is the ability of these compounds to retain their effectiveness against penicillin-resistant strains of Staphylococcus aureus, a dangerous hospital-borne pathogen which is becoming difficult to treat with conventional antibiotic therapy. The lactams were screened for antibacterial activity by disk diffusion on agar plates, and the resulting zones of bacterial growth inhibition measured (see Table 3; each lactam is designated by Figure number).
(§6) Table 3: Growth inhibition zones obtained from agar disk diffusion experiments using 6-mm air-dried disks impregnated with 20 μg of the test compound. The values correspond to the average diameters in mm for the zone of growth inhibition observed after 24 hours. Staphylococcus aureus and β-lactamase-producing strains of methicillin-resistant Staphylococcus aureus (labeled MRSA USF652-659) are obtained from a clinical testing laboratory at Lakeland Regional Medical Center, Lakeland, Fla.

Staphylococcus aureus = experiment: MIC by agar dilution; format: cell-based
From the text: (§7) However, the N-alkylthio substituent is required, since reduction to the N—H analogue completely destroys the biological activity.

MRSA strains = experiment: MIC by agar dilution; format: cell-based, Staphylococcus aureus
From the text: as §7

Micrococcus luteus = experiment: Kirby-Bauer agar disk diffusion; format: cell-based; details: Table 1; 6-mm disks, 20 μg test compound, 24 h, triplicate
Description: as §3, §4, §5, §6

[3] = system: Staphylococcus epidermidis; experiment: Kirby-Bauer agar disk diffusion; format: cell-based; details: Table 1; 6-mm disks, 20 μg test compound, 24 h, triplicate
Description: as §3, §4, §5, §6

[4] = system: Staphylococcus aureus (ATCC 25923); experiment: Kirby-Bauer agar disk diffusion; format: cell-based; details: Table 1; 6-mm disks, 20 μg test compound, 24 h, triplicate
Description: as §3, §4, §5, §6

N. gonorrhoeae = experiment: Kirby-Bauer agar disk diffusion; format: cell-based, Neisseria gonorrhoeae; details: Table 1; 6-mm disks, 20 μg test compound, 24 h, triplicate; β-lactamase positive
Description: as §3, §4

[5] = system: S. saprophyticus (ATCC 3552); experiment: Kirby-Bauer agar disk diffusion; format: cell-based, Staphylococcus saprophyticus; details: Table 1; 6-mm disks, 20 μg test compound, 24 h, triplicate
Description: as §3, §4, §5, §6

[6] = read-out: The Zone of Inhibition

Structure (SMILES) | Kirby-Bauer Disc Diffusion Test Results (MRSA USF656) | Kirby-Bauer Disc Diffusion Test Results (MRSA USF653) | Kirby-Bauer Disc Diffusion Test Results (MRSA USF652) | Kirby-Bauer Disc Diffusion Test Results (MRSA USF658) | Kirby-Bauer Disc Diffusion Test Results (MRSA USF655) | Kirby-Bauer Disc Diffusion Test Results (MRSA USF657) | Kirby-Bauer Disc Diffusion Test Results (MRSA USF654) | Kirby-Bauer Disc Diffusion Test Results (MRSA USF659) | cells Gram-stained purple (MRSA cells) | zone of growth inhibition, average diameter (MRSA USF656) [mm] | zone of growth inhibition, average diameter (MRSA USF653) [mm] | zone of growth inhibition, average diameter (MRSA USF652) [mm] | zone of growth inhibition, average diameter (MRSA USF658) [mm] | zone of growth inhibition, average diameter (MRSA USF655) [mm] | zone of growth inhibition, average diameter (MRSA USF657) [mm] | zone of growth inhibition, average diameter (MRSA USF654) [mm] | zone of growth inhibition, average diameter (MRSA USF659) [mm] | coloration upon Gram staining (MRSA cells) | zone of growth inhibition, average diameter (S. simulans (ATCC 11631)) [mm] | zone of growth inhibition, average diameter (Micrococcus luteus) [mm] | also measured
COC1C(=O)N(SC)C1c1ccccc1Cl (racemic) [FIG. 11F] | 26 | 30 | 30 | 28 | 26 | 28 | 26 | 27 | 100% |  |  |  |  |  |  |  |  |  |  |  | cell counts ([1]; Example 5, cultures grown in the presence of the lactam): Highly reduced cell counts; alterations in the shapes or sizes of remaining cells ([1]; Example 5, light and scanning electron microscopy, range of concentrations and growth conditions): in no cases have we found alterations in the shapes or sizes; Kirby-Bauer Disc Diffusion Test Results (Staph aureus 525): 26
COC1C(=O)N(SC)C1c1ccccc1Cl (racemic) [Lactam D] |  |  |  |  |  |  |  |  |  | 28 | 30 | 30 | 27 | 26 | 28 | 26 | 24 | uniform purple coloration | 16 | 24 | bacterial uptake of ^3H-leucine [2]: blocks; bacterial uptake of ^3H-uridine [2]: blocks; Minimum inhibitory concentration (MIC) (Staphylococcus aureus): 15 µg/mL (≈ 58.2 µM); cell morphology ([1]; listed as FIG. 1D): unaffected; also recorded: no visible damage or morphological deformities; Minimum inhibitory concentration (MIC) (MRSA strains): 5 to 10 µg/mL; zone of growth inhibition, average diameter [3]: 29 mm; zone of growth inhibition, average diameter [4]: 26 mm; zone of growth inhibition, average diameter (N. gonorrhoeae): 19 mm; zone of growth inhibition, average diameter [5]: 20 mm
COC1C(=O)N(SC)C1c1cccs1 (racemic) [Lactam I] |  |  |  |  |  |  |  |  |  | 28 | 28 | 28 | 26 | 29 | 26 | 27 | 24 |  | 0 | 15 | zone of growth inhibition, average diameter [3]: 28 mm; zone of growth inhibition, average diameter [4]: 27 mm; zone of growth inhibition, average diameter (N. gonorrhoeae): 11 mm; zone of growth inhibition, average diameter [5]: 20 mm
CN[C@H](CC(C)C)C(=O)N[C@H]1C(=O)N[C@@H](CC(N)=O)C(=O)N[C@H]2C(=O)N[C@H]3C(=O)N[C@H](C(=O)N[C@H](C(=O)O)c4cc(O)cc(O)c4-c4cc3ccc4O)[C@H](O)c3ccc(c(Cl)c3)Oc3cc2cc(c3O[C@@H]2O[C@H](CO)[C@@H](O)[C@H](O)[C@H]2O[C@H]2C[C@](C)(N)[C@H](O)[C@H](C)O2)Oc2ccc(cc2Cl)[C@H]1O [Vancomycin, reference compound] | 21 | 18 | 19 | 18 | 19 | 18 | 19 | 18 | about 30% |  |  |  |  |  |  |  |  | pink coloration |  |  | zone of inhibition at 20 µg/disc (MRSA USF656; [6]): 20 mm; zone of inhibition at 20 µg/disc (MRSA USF656; read-out: Zones of Inhibition): 21 mm; zone of inhibition at 20 µg/disc (MRSA USF653; [6]): 20 mm; zone of inhibition at 20 µg/disc (MRSA USF653; read-out: Zones of Inhibition): 18 mm; zone of inhibition at 20 µg/disc (MRSA USF652; [6]): 23 mm; zone of inhibition at 20 µg/disc (MRSA USF652; read-out: Zones of Inhibition): 19 mm; zone of inhibition at 20 µg/disc (MRSA USF658; [6]): 20 mm; zone of inhibition at 20 µg/disc (MRSA USF658; read-out: Zones of Inhibition): 18 mm; zone of inhibition at 20 µg/disc (MRSA USF655; [6]): 19 mm; zone of inhibition at 20 µg/disc (MRSA USF655; read-out: Zones of Inhibition): 19 mm; zone of inhibition at 20 µg/disc (MRSA USF657; [6]): 21 mm; zone of inhibition at 20 µg/disc (MRSA USF657; read-out: Zones of Inhibition): 18 mm; zone of inhibition at 20 µg/disc (MRSA USF654; [6]): 20 mm; zone of inhibition at 20 µg/disc (MRSA USF654; read-out: Zones of Inhibition): 19 mm; zone of inhibition at 20 µg/disc (MRSA USF659; [6]): 20 mm; zone of inhibition at 20 µg/disc (MRSA USF659; read-out: Zones of Inhibition): 18 mm; cell morphology [1]: wrinkled, deformed, or even sheared
